Experimental data reported in ChEMBL document CHEMBL1201862, “PubChem BioAssay data set” (2004).
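The compound was tested at five concentrations on cells cultured in 96-well plates, with a 48-hour exposure period. GI50 is the concentration that inhibits growth by half.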 Active and inactive are the calls of the source. No stated cut-off is given here; in the data, active = GI50 up to about 1.1 µM and inactive = higher.

Legend:
Assay in all cases: NCI tumour cell line growth inhibition, 48 h
A549 = test system: A549
KM12 = test system: KM12
UO-31 = test system: UO-31
U-251 = test system: U-251
MDA-MB-435 = test system: MDA-MB-435
NCI-H460 = test system: NCI-H460
COLO 205 = test system: COLO 205
HCT-116 = test system: HCT-116
SK-OV-3 = test system: SK-OV-3
K562 = test system: K562
786-0 = test system: 786-0
Hs-578T = test system: Hs-578T
DU-145 = test system: DU-145
LOX IMVI = test system: LOX IMVI
SNB-19 = test system: SNB-19
TK-10 = test system: TK-10
SN12C = test system: SN12C
HCC 2998 = test system: HCC 2998
SK-MEL-28 = test system: SK-MEL-28
OVCAR-4 = test system: OVCAR-4

Structure (SMILES)	GI50 (A549)	GI50 (KM12)	GI50 (UO-31)	GI50 (U-251)	GI50 (MDA-MB-435)	GI50 (NCI-H460)	GI50 (COLO 205)	GI50 (HCT-116)	GI50 (SK-OV-3)	GI50 (K562)	GI50 (786-0)	GI50 (Hs-578T)	GI50 (DU-145)	GI50 (LOX IMVI)	GI50 (SNB-19)	GI50 (TK-10)	GI50 (SN12C)	GI50 (HCC 2998)	GI50 (SK-MEL-28)	GI50 (OVCAR-4)
COc1ccc(C2C=C(c3ccccc3)Nc3nnnn32)cc1 (configuration not stated)	41.3 µM (inactive)	15.8 µM (inactive)	90.8 µM (inactive)	19.7 µM (inactive)	76.6 µM (inactive)	45 µM (inactive)	> 100 µM (inactive)	13.5 µM (inactive)	31.7 µM (inactive)	50.6 µM (inactive)	27.5 µM (inactive)	40.6 µM (inactive)	28.4 µM (inactive)	41.7 µM (inactive)	97.9 µM (inactive)	6.27 µM (inactive)	> 100 µM (inactive)			
Cn1ncc2c(Nc3cccc(Cl)c3)nc(Nc3cccc(Cl)c3)nc21	8.11 µM (inactive)	4.9 µM (inactive)	9.73 µM (inactive)	8.04 µM (inactive)	10.9 µM (inactive)		> 24.7 µM (inactive)	11.4 µM (inactive)	20 µM (inactive)	1.75 µM (inactive)	2.43 µM (inactive)	12 µM (inactive)	14.6 µM (inactive)	5.82 µM (inactive)	19.1 µM (inactive)	11.5 µM (inactive)	20.7 µM (inactive)	8.93 µM (inactive)	14.8 µM (inactive)	11.9 µM (inactive)
O=C1NC(=S)N/C1=C\c1cccs1	> 100 µM (inactive)	> 100 µM (inactive)	> 100 µM (inactive)	> 100 µM (inactive)	> 100 µM (inactive)		> 100 µM (inactive)	> 100 µM (inactive)	> 100 µM (inactive)	> 100 µM (inactive)	> 100 µM (inactive)	> 100 µM (inactive)	> 100 µM (inactive)	> 100 µM (inactive)	> 100 µM (inactive)	> 100 µM (inactive)	> 100 µM (inactive)	> 100 µM (inactive)	> 100 µM (inactive)	> 100 µM (inactive)
CCC1(O)CN(CCOC)[C@H]2C[C@@H]1C(=O)c1[nH]c3ccccc3c12 (some centres not stated)	> 100 µM (inactive)	> 100 µM (inactive)	> 100 µM (inactive)	> 100 µM (inactive)	> 100 µM (inactive)	> 100 µM (inactive)	> 100 µM (inactive)	> 100 µM (inactive)		> 100 µM (inactive)	> 100 µM (inactive)	> 100 µM (inactive)	> 100 µM (inactive)	> 100 µM (inactive)	> 100 µM (inactive)	> 100 µM (inactive)	> 100 µM (inactive)	> 100 µM (inactive)	> 100 µM (inactive)	> 100 µM (inactive)
O=C(O[C@H](/C=C/c1ccccc1)P1(=O)N(Cc2ccccc2)[C@H]2CCCC[C@@H]2N1Cc1ccccc1)c1ccccc1	3.7 µM (inactive)	3.41 µM (inactive)	4.61 µM (inactive)	4.01 µM (inactive)	3.05 µM (inactive)	3.72 µM (inactive)	1.68 µM (inactive)	2.79 µM (inactive)	5.85 µM (inactive)	4.2 µM (inactive)	3.7 µM (inactive)	9.31 µM (inactive)		3.32 µM (inactive)	5.31 µM (inactive)	> 100 µM (inactive)	3.15 µM (inactive)	8.18 µM (inactive)	8.83 µM (inactive)	1.49 µM (inactive)
CC1CC/C(=C\c2ccc(F)cc2)C2=C1C(c1ccc(F)cc1)n1c(s/c(=C\c3ccc(Cl)cc3)c1=O)=N2 (configuration not stated)	> 100 µM (inactive)	> 100 µM (inactive)		> 100 µM (inactive)	> 100 µM (inactive)			> 100 µM (inactive)	> 100 µM (inactive)	> 100 µM (inactive)	> 100 µM (inactive)	> 100 µM (inactive)	> 100 µM (inactive)	> 100 µM (inactive)	> 100 µM (inactive)	> 100 µM (inactive)	> 100 µM (inactive)		> 100 µM (inactive)	> 100 µM (inactive)
CC(=O)C1(/N=N/c2ccc(S(N)(=O)=O)cc2)CCOC1=O (configuration not stated)	> 100 µM (inactive)	> 100 µM (inactive)	> 100 µM (inactive)	> 100 µM (inactive)	> 100 µM (inactive)	> 100 µM (inactive)	> 100 µM (inactive)	> 100 µM (inactive)	> 100 µM (inactive)		> 100 µM (inactive)	> 100 µM (inactive)	> 100 µM (inactive)	> 100 µM (inactive)	> 100 µM (inactive)	> 100 µM (inactive)	> 100 µM (inactive)		> 100 µM (inactive)	> 100 µM (inactive)
COC1/C=C(C)/C=C/C(C)/C=C/C(=O)OC(/C(C)=C/C=C(\C)CNC(=O)[C@H](CO)NC=O)C(C)/C=C/C=C/C(OC)CC/C=C(C)/C=C/C1 (some centres not stated)	0.0307 µM (active)	0.0195 µM (active)	0.197 µM (active)	0.0673 µM (active)	0.0224 µM (active)	0.0316 µM (active)		0.0318 µM (active)	> 1 µM (active)	0.0192 µM (active)	0.0288 µM (active)	> 0.214 µM (active)	> 0.312 µM (active)	0.0265 µM (active)	> 1 µM (active)	0.356 µM (active)			> 0.283 µM (active)	0.491 µM (active)
O=C(c1ccccc1)c1c(-c2ccccc2)[nH]n(-c2ccc([N+](=O)[O-])cc2)c(=O)c1=O	38.5 µM (inactive)	94.8 µM (inactive)	32.1 µM (inactive)	5.78 µM (inactive)	75.2 µM (inactive)	37.2 µM (inactive)	> 100 µM (inactive)	53.2 µM (inactive)	36.9 µM (inactive)	41.5 µM (inactive)	> 100 µM (inactive)	0.504 µM (active)	> 100 µM (inactive)		6.47 µM (inactive)	91.8 µM (inactive)	57.3 µM (inactive)	64.7 µM (inactive)	21 µM (inactive)	25.8 µM (inactive)
Cc1ccc2c(c1C)C(=O)/C(=C/c1ccccc1C(=O)O)C2	> 100 µM (inactive)	> 100 µM (inactive)	> 100 µM (inactive)	> 100 µM (inactive)	> 100 µM (inactive)	> 100 µM (inactive)	> 100 µM (inactive)	> 100 µM (inactive)		> 100 µM (inactive)	> 100 µM (inactive)	> 100 µM (inactive)	> 100 µM (inactive)	> 100 µM (inactive)	> 100 µM (inactive)	> 100 µM (inactive)	> 100 µM (inactive)	> 100 µM (inactive)	> 100 µM (inactive)	> 100 µM (inactive)
COc1cc(/N=C\N(C)C)c2ncccc2c1	79.6 µM (inactive)		52 µM (inactive)	79.3 µM (inactive)	28.5 µM (inactive)		> 100 µM (inactive)	35.2 µM (inactive)	> 100 µM (inactive)	15.8 µM (inactive)	81.3 µM (inactive)	98.4 µM (inactive)	> 100 µM (inactive)	44.4 µM (inactive)	> 100 µM (inactive)	> 100 µM (inactive)	> 100 µM (inactive)		> 100 µM (inactive)	> 100 µM (inactive)
C/C(=N\Nc1nc2ccccc2s1)c1ncccn1	0.141 µM (active)	0.128 µM (active)	0.022 µM (active)	< 0.0196 µM (active)	0.363 µM (active)	0.04 µM (active)	< 0.01 µM (active)	< 0.0193 µM (active)	0.103 µM (active)	< 0.0501 µM (active)	0.0336 µM (active)	0.59 µM (active)	0.258 µM (active)		0.316 µM (active)		< 0.0204 µM (active)	0.953 µM (active)	0.179 µM (active)	
CCOC(=O)C(Cl)(NC(=O)c1c(F)c(F)c(F)c(F)c1F)C(F)(F)F (configuration not stated)	> 100 µM (inactive)	> 100 µM (inactive)	> 100 µM (inactive)	> 100 µM (inactive)	> 100 µM (inactive)		> 100 µM (inactive)	> 100 µM (inactive)	> 100 µM (inactive)	> 100 µM (inactive)	> 100 µM (inactive)	> 100 µM (inactive)	> 100 µM (inactive)	> 100 µM (inactive)	> 100 µM (inactive)	> 100 µM (inactive)	> 100 µM (inactive)	> 100 µM (inactive)	> 100 µM (inactive)	> 100 µM (inactive)
c1ccc2[nH]c3[nH]c4[nH]c5ccccc5[nH]c4[nH]c3[nH]c2c1	> 100 µM (inactive)	> 100 µM (inactive)	> 100 µM (inactive)	> 100 µM (inactive)	> 100 µM (inactive)	> 100 µM (inactive)	> 100 µM (inactive)	> 100 µM (inactive)	> 100 µM (inactive)	> 100 µM (inactive)	> 100 µM (inactive)	60.7 µM (inactive)	> 100 µM (inactive)	> 100 µM (inactive)	> 100 µM (inactive)	> 100 µM (inactive)	> 100 µM (inactive)	> 100 µM (inactive)	> 100 µM (inactive)	
CN(C)Cc1cc(C(=O)/C=C/c2ccc(F)cc2)cc(CN(C)C)c1O	26.6 µM (inactive)	18.9 µM (inactive)	13.4 µM (inactive)	24.4 µM (inactive)	16.3 µM (inactive)	10.5 µM (inactive)		13.4 µM (inactive)		17.8 µM (inactive)	37.7 µM (inactive)	24.7 µM (inactive)	42.2 µM (inactive)	5.92 µM (inactive)	25.4 µM (inactive)	85.9 µM (inactive)	18.4 µM (inactive)	> 10 µM (inactive)	29.2 µM (inactive)	41.8 µM (inactive)
